Reference: patent publication US5475029A, “Farnesyl compounds as cholesterol lowering agents” (The Board of Trustees of the Leland Stanford Junior …, priority 1993, dated 1995)

Columns and labels:
Format in all cases: cell-based
β-galactosidase = β-galactosidase activity in CHO-Gal control cells
Procedure: β-galactosidase Specific Activity--In vitro β-galactosidase activity was measured using the substrate, o-nitrophenyl-β-D-galactopyranoside. Specific activities were calculated using protein concentration values.
To confirm that the reduction in HMGal activity was the result of a regulatory function specifically targeting the membrane domain of HMGal, the effects of farnesyl acetate on β-galactosidase activity were measured in vitro for both CHO-HMGal cells and CHO-Gal cells. The CHO-Gal cells had been stably transfected with a construct identical to the HMGal construct (using the same vector, promoter, and 5' and 3' flanking regions) except that the construct in the CHO-Gal cells codes for a soluble β-galactosidase protein instead of the HMGal fusion protein with the membrane domain of HMG-CoA reductase. In this experiment, the CHO-Gal cells served to control for any artifacts farnesyl acetate might cause in the β-galactosidase assay or any nonspecific effects farnesyl acetate might have on the rates of protein synthesis or degradation.

[1] = test system: cholesterol biosynthetic pathway; experiment: TLC distribution of [3H]acetate-derived non-saponifiable lipids (site of metabolic block); set-up: radioactivity in the cell-derived fraction co-migrating with lanosterol / radioactivity in the cell-derived fraction co-migrating with squalene / radioactivity in the cell-derived fraction co-migrating with cholesterol / remaining radioactivity in the cell-derived fraction scattered throughout the rest of the TLC lane: concentration or dose not given beside the values
Procedure: Lipid Saponification and Extraction Procedure Saponification and extraction of lipids from cell and media samples was performed as previously described in Bradfute, et al. (1992) J.B.C. 267:18308-18314.
Thin Layer Chromatography--TLC was performed using Analtech 250 μm silica gel G plates with a hexanes/diethyl ether (1:1) solvent system. Lipid standards were visualized by iodine staining. Bands were scraped from the plate and their radioactivity was measured.
Quantification of Radioactivity--Samples were suspended in 4 ml of scintillation fluid (Cytoscint from ICN). The radioactivity of the samples was measured using a Beckman LS-7500 scintillation counter.
To determine tile site of tile metabolic block caused by farnesyl acetate and ethyl farnesyl ether, the non-saponifiable lipids from cells grown in the presence of the farnesyl compounds were examined for the accumulation of intermediates in the cholesterol biosynthetic pathway. The cells were only labeled for 1 hour and only treated with the farnesyl compounds during the labeling period; so that any intermediates which accumulated would be as a result of the inhibitory effects of the farnesol compounds and not subsequent regulatory effects on HMG-CoA reductase. CHO-HMGal cells were incubated with [^3 H]acetate and either farnesyl acetate, ethyl farnesyl ether, or no additive. The non-saponifiable lipids were isolated from both the cell, and the medium and separated by TLC.

HMGal = HMGal synthesis rate ([35S]methionine incorporation); settings: 10 μg/ml
Procedure: Measurement of HMGal and HMG-CoA Reductase Synthesis Rates Cells plated into 60×15 mm dishes were grown in 5% LPS MEM with 0.25 mg/ml active geneticin for 24 hours. These cells were washed with PBS and grown for 24 hours in 5% LPS MEM supplemented with 0.25 mg/ml active geneticin, 10 μM compactin and 0.1 mM mevalonate. After 24 hours, the medium was removed, the cells were washed with PBS and the medium was replaced with methionine-free MEM supplemented with 5% LPS, 250 μg/ml of active geneticin, 10 μM compactin, and 0.1 mM mevalonate. In addition, 20 mM mevalonate or 10 μg/ml farnesyl acetate was included in those plates previously treated with these compounds. […] Cells were washed, lysed and the HMGal and HMG-CoA reductase proteins were immunoprecipitated, subjected to SDS-PAGE and quantified. […]
Farnesyl compounds reduce translation and stimulate degradation of HMG-CoA reductase and HMGal A reduction in HMGal specific activity triggered by the farnesyl compounds could have been the result of a decrease in HMGal synthesis, an increase in HMGal degradation, or a combination of changes in both the synthesis and degradation rates. In order to test whether the farnesyl compounds impact synthesis, the rates of HMGal, HMG-CoA reductase, and total cellular protein synthesis were measured by [^35 S]methionine incorporation in the presence and absence of 10 μg/ml farnesyl acetate.

[2] = 1 hour labeling with [3H]acetate, compound only during labeling

CC(=O)OCC=C(C)CCC=C(C)CCC=C(C)C [farnesyl acetate]
change of β-galactosidase activity of CHO-Gal cells (β-galactosidase; 10 μg/ml): not changed significantly
change of β-galactosidase activity of CHO-Gal cells (β-galactosidase; 20 μg/ml): essentially unchanged
radioactivity in the cell-derived fraction co-migrating with cholesterol [1, 2]: 4%
radioactivity in the cell-derived fraction co-migrating with lanosterol [1, 2]: 74%
radioactivity in the cell-derived fraction co-migrating with squalene [1, 2]: 9%
remaining radioactivity in the cell-derived fraction scattered throughout the rest of the TLC lane [1, 2]: 13%
total non-saponifiable radioactivity found in the medium ([1]; untreated 6%): 12%
total non-saponifiable radioactivity found in the cells ([1]; untreated 94%): 88%
increase in media-derived material co-migrating with farnesol ([1]; versus untreated sample): ~3 fold
reduction in the rate of HMGal synthesis (HMGal): 80%
